Assay results as given in patent US20240417399A1, “ARYL HYDROCARBON RECEPTOR (AHR) MODULATORS AND THERAPEUTIC USES THEREOF” (GALILEO BIOSYSTEMS, INC., priority 2021, published 2024).

Assays:
Male Balb/c mice = test: Imiquimod (IMQ)-induced skin inflammation: ear swelling; format: in vivo; details: topical on right ear, 20 μL, 50 mM once daily Day 1 to Day 9, IMQ cream
Protocol: (§1) The compounds are administered on the right ear once daily from Day 1 to Day 9 for 9 consecutive days. […] Daily Clobetasol dosage is 20 mg of 0.05% cream. One hour after administration, 15 mg imiquimod (IMQ) cream (5%, Aldaras) is applied topically on the right ear from Day 1 to Day 9 for 9 consecutive days. Ear swelling is measured (mm) as an index of inflammation on Day 0 and thereafter 30 min before dosing on Days 2, 4, 6 and 8. On Day 10, ear swelling is measured 24 hours after the last dosing. Ear edema is calculated by subtracting the thickness of Day 0 (normal control) from Day n (treated ear). Percent inhibition is calculated according to the formula: (Lc−Lt)/Lc×100, where Lc and Lt refer to increase of ear thickness in control and treated mice, respectively. Clinical scoring is done on the same days as the measurement of ear swelling. Body weight is recorded on Day 0 and thereafter daily before dosing. […] Right ears are harvested, weighed after the last ear swelling measurement, and cut into two parts, one part to be kept in 10% formalin for histopathological examination and the second part to be stored in RNAlater® solution at −20° C. for detection of IL-17 A, IL-22, GAPDH, and beta defensin with quantitative real-time PCR (qPCR). Dermal thickness is measured after taking photographs under a light microscope for the histopathological examination sections. […]

[1] = Imiquimod (IMQ)-induced skin inflammation: body weight; format: in vivo; details: Balb/c mice, topical on right ear, 20 μL, 50 mM once daily Day 1 to Day 9
Protocol: as §1

IL-2 = IL-2 release from T-cells, inflammation induced by CD2, CD3, and CD28; format: cell-based; details: highest test concentrations
Text: (§2) Inflammation of T-cells were induced by CD2, CD3, and CD28. […] FIG. 7B depicts concentration response curves of inhibition of IL-2 and IL-4 release and cell viability for tapiranof.

IL-4 = IL-4 release from T-cells, inflammation induced by CD2, CD3, and CD28; format: cell-based; details: highest test concentrations
Text: as §2

IL-8 = IL-8 release from human keratinocytes, inflammation induced by IL-17 and IFN-α; format: cell-based; details: human keratinocytes induced by IL-17 and IFN-α
Text: FIG. 6B depicts concentration response curves of inhibition of IL-8 release and cell viability for tapiranof.

IL-17 = test: Imiquimod (IMQ)-induced skin inflammation: IL-17 gene expression in ear by qPCR; format: in vivo; details: Balb/c mice, topical on right ear, 20 μL, 50 mM once daily Day 1 to Day 9, IMQ cream
Protocol: as §1

CCL2 = CCL2 release from human keratinocytes, inflammation induced by IL-4, IL-13, IL-22 and IFN-γ; format: cell-based; details: human keratinocytes induced by IL-4, IL-13, IL-22 and IFN-γ
Text: (§3) Inflammation of human keratinocytes was induced by IL-4, IL-13, IL-22 and IFN-γ. […] FIG. 5B depicts concentration response curves of CCL2 release and cell viability for tapiranof.

human keratinocytes = test: Cell viability of human keratinocytes, inflammation induced by IL-4, IL-13, IL-22 and IFN-γ; format: cell-based; details: human keratinocytes induced by IL-4, IL-13, IL-22 and IFN-γ
Text: as §3

| Structure (SMILES) | ear swelling compared to vehicle (Male Balb/c mice) | effect on body weights [1] | inhibition of IL-2 release (IL-2) | inhibition of IL-4 release (IL-4) | inhibition of IL-8 release (IL-8) | IL-17 gene expression in the ear (IL-17) | inhibition of CCL2 release (CCL2) | cell viability (human keratinocytes) |
| --- | --- | --- | --- | --- | --- | --- | --- | --- |
| O=C(c1nc2ccccc2[nH]1)c1c[nH]c2ccccc12 [Compound 10] | significant reductions in ear swelling | no significant effect on body weights | inhibited release of IL-2 and IL-4 at the highest test concentrations | inhibited release of IL-2 and IL-4 at the highest test concentrations | inhibited release of IL-8 | reduction in IL-17 gene expression | inhibited release of CCL2 | – |
| CC(C)c1c(O)cc(/C=C/c2ccccc2)cc1O [tapiranof, reference compound] | – | – | inhibited release of IL-2 and IL-4 at the highest test concentrations | inhibited release of IL-2 and IL-4 at the highest test concentrations | inhibited release of IL-8 | – | inhibited release of CCL2 | inhibition of cell viability at higher concentrations |
